# Assay results taken from patent US20230115176A1 (Ra Pharmaceuticals, Inc., priority 2019, published 2023).
# System: not listed separately
# Assay: Kinetic solubility in PBS pH 7.4, HPLC-UV (Example 21, Table 27)
# Format: physicochemical
# Settings: phosphate buffered saline, aqueous buffer, kinetic from dmso stock, 0.5 M PBS, shaken minimum 24 h at approximately 25° C., HPLC-UV 270 nm
# Outline: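 10 mM DMSO stock diluted into 0.05 M PBS pH 7.4 (5% DMSO final), in triplicate, shaken ≥24 h at ~25 °C, then filtered by centrifugation. Supernatant concentration by HPLC-UV at 270 nm against external DMSO standards (15.6–500.0 μM).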
row,Structure (SMILES),solubility kinetic
1,CCCCCOc1cc(N2CC[C@H](C)N(Cc3cccc4c3ccn4CC(=O)N3CCCC3)C2=O)ccc1OC [SC0001],66 µM
2,CCCCCOc1cc(N2CC[C@H](C)N(Cc3cccc4c3ccn4CC(=O)N3CCO[C@@H](COC)C3)C2=O)ccc1OC [SC0009],167 µM
3,CCCCCOc1cc(N2CC[C@H](C)N(Cc3cccc4c3ccn4CC(=O)N3CCO[C@H](COC)C3)C2=O)ccc1OC [SC0002],111 µM
4,CCCCCOc1cc(N2CC(C)CN(Cc3ccc(CC(=O)N(C)C)cc3OC)C2=O)ccc1OC (centres unmarked) [SC0017],398 µM
5,CCCCCOc1cc(N2CC[C@H](C)N(Cc3cccc4c3ccn4CC(=O)N(C)c3cccnc3)C2=O)ccc1OC [SC0011],43 µM
6,CCCCCOc1cc(N2CCCN(Cc3ccc(CC(=O)NC4CCN(C(C)C)CC4)cc3OC)C2=O)ccc1OC [CU0109],> 500 µM
7,CCCCCOc1cc(N2CCCN(Cc3ccc(CC(=O)N[C@@H]4CNC[C@H]4F)cc3OC)C2=O)ccc1OC [CU0108],> 500 µM
8,CCCCCOc1cc(N2CC[C@H](C)N(Cc3cccc4c3ccn4CC(=O)N3CCOC(CN(C)C)C3)C2=O)ccc1OC (some centres unmarked) [SC0007],445 µM
9,CCCCCOc1cc(N2CC[C@H](C)N(Cc3cccc4c3ccn4CC(=O)N(C)C)C2=O)ccc1OC [SC0008],103 µM
10,CCCCCOc1cc(N2CCCN(Cc3cccc4c3c(F)cn4CC(=O)N(C)C)C2=O)ccc1OC [CU0232],< 10 µM

# Biological target: T1, Human C5 (Homo sapiens, UniProt P01031)
# T1 construct: purchased Complement Technology
# T1 sequence (P01031 19-1676): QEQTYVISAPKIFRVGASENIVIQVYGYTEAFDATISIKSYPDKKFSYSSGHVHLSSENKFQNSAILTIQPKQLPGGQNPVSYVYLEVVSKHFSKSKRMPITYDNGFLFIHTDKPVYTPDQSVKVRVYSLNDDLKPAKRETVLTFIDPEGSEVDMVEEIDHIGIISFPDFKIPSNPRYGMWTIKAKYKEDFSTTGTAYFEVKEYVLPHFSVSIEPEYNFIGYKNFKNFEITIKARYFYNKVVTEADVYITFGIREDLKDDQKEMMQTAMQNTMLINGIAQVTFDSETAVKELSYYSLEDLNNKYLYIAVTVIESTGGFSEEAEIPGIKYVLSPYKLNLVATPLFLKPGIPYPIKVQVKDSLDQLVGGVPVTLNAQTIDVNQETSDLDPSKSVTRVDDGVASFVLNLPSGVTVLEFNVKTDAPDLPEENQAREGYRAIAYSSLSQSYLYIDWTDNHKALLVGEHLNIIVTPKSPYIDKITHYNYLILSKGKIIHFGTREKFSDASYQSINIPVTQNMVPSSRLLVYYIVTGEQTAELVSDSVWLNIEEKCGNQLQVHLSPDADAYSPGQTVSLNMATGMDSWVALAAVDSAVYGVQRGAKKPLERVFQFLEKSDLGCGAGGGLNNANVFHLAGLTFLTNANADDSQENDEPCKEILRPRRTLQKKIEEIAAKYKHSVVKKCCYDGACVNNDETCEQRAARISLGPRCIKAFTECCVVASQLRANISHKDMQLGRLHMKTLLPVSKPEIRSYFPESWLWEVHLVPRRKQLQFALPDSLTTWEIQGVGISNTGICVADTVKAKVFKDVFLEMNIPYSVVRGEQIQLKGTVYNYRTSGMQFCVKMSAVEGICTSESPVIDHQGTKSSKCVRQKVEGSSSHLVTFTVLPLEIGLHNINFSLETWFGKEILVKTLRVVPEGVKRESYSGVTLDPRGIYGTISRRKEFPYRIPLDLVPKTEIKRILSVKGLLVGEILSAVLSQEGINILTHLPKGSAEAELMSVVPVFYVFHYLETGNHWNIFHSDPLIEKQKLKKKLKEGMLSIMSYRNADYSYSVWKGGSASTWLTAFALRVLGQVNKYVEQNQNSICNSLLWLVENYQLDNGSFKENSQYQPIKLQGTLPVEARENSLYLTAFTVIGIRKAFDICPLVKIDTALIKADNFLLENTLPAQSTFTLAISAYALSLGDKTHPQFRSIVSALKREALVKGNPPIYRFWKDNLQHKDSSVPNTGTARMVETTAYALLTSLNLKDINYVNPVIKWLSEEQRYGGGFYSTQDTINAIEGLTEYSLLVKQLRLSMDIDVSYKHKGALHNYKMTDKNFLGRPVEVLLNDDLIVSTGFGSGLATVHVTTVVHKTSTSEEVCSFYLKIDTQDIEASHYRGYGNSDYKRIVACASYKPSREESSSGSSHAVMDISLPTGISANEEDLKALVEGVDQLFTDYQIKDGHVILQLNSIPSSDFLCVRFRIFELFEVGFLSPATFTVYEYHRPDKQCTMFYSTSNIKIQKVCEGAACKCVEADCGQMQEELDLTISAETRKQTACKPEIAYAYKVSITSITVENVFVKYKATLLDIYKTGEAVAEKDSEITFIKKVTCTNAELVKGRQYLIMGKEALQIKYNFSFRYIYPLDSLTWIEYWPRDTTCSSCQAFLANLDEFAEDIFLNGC
# Assay: Red blood cell (RBC) hemolysis assay, luminescent (Example 13, Table 22); further: 1.5% C5-depleted human serum
# Format: cell-based
# Settings: sheep EA cells, […] C5-depleted human serum, 0.5 nM human C5, 1 hour 37° C., luminescence
# Excerpt: (§1) Compound CU0136 is a racemic mixture of Compound CU0186 and CU0187. Numbers in parenthesis following compound numbers indicate alternate enantiomers (as distinguished by retention time during chromatographical separation).
row,Structure (SMILES),IC50
1,CCCCCOc1cc(N2CCCN(Cc3ccc(CC(=O)NC4CCN(C(C)C)CC4)cc3OC)C2=O)ccc1OC [CU0109],18.6 nM
2,CCCCCOc1cc(N2CCCN(Cc3ccc(CC(=O)N[C@@H]4CNC[C@H]4F)cc3OC)C2=O)ccc1OC [CU0108],19.5 nM
3,CCCCCOc1cc(N2CCCN(Cc3cccc4c3c(F)cn4CC(=O)N(C)C)C2=O)ccc1OC [CU0232],21.6 nM

# Biological target: human C5 complement protein (Homo sapiens, UniProt P01031)
# Sequence (P01031 19-1676): as above
# Assay: Surface plasmon resonance (SPR), immobilized human C5, 37° C. (Example 12, Table 21)
# Format: binding
# Settings: where a range of compound concentrations were analyzed, the lowest value obtained
# Excerpt: as §1
row,Structure (SMILES),Kd
1,CCCCCOc1cc(N2CCCN(Cc3ccc(CC(=O)NC4CCN(C(C)C)CC4)cc3OC)C2=O)ccc1OC [CU0109],1.1 nM
2,CCCCCOc1cc(N2CCCN(Cc3ccc(CC(=O)N[C@@H]4CNC[C@H]4F)cc3OC)C2=O)ccc1OC [CU0108],1.2 nM
3,CCCCCOc1cc(N2CCCN(Cc3cccc4c3c(F)cn4CC(=O)N(C)C)C2=O)ccc1OC [CU0232],1.3 nM

# Biological target: T1, Human C5
# Assay: Red blood cell (RBC) hemolysis assay, luminescent (Example 24, Table 29)
# Format: cell-based
# Settings: sheep EA cells, […] C5-depleted human serum, 0.5 nM human C5, 1 hour at 37° C., luminescence (Table 29)
# Excerpt: Numbers in parenthesis following the compound number indicate alternate enantiomers (as distinguished by retention time during chromatographical separation).
row,Structure (SMILES),IC50
1,CCCCCOc1cc(N2CC(CO)CN(Cc3cc(F)ccc3OC)C2=O)ccc1OC (centres unmarked) [SC0016(1)],8.4 nM
2,CCCCCOc1cc(N2CC[C@@H](C)N(Cc3ccnc4[nH]ccc34)C2=O)ccc1OC [SC0015],222 nM
3,CCCCCOc1cc(N2CC[C@H](C)N(Cc3cccc4c3ccn4CC(=O)N3CCOCC3)C2=O)ccc1OC [SC0012],28.5 nM
4,CCCCCOc1cc(N2CC(O)CN(Cc3cc(F)ccc3OC)C2=O)ccc1OC (centres unmarked) [SC0058],50.8 nM
5,CCCCCOc1cc(N2CC[C@H](C)N(Cc3cccc4c3ccn4CC(=O)N3CCCC3)C2=O)ccc1OC [SC0001],8.4 nM
6,CCCCCOc1cc(N2CC3(CN(Cc4cc(F)ccc4OC)C2=O)CN(S(=O)(=O)c2ccc(C)cc2)C3)ccc1OC [SC0071],870 nM
7,CCCCCOc1cc(N2CC(COCc3ccncn3)CN(Cc3cc(F)ccc3OC)C2=O)ccc1OC (centres unmarked) [SC0023],111 nM
8,CCCCCOc1cc(N2CC[C@H](C)N(Cc3cccc4c3ccn4CC(=O)N3CCNC(=O)C3)C2=O)ccc1OC [SC0003],9.9 nM
9,CCCCCOc1cc(N2CC(C(=O)N3CCOCC3)CN(Cc3cc(F)ccc3OC)C2=O)ccc1OC (centres unmarked) [SC0051],111 nM
10,CCCCCOc1cc(N2CC(CNC(=O)C(=O)N(C)C)CN(Cc3cc(F)ccc3OC)C2=O)ccc1OC (centres unmarked) [SC0055],38.2 nM
11,CCCCCOc1cc(N2CC3(CNC3)CN(Cc3cc(F)ccc3OC)C2=O)ccc1OC [SC0070],398 nM
12,CCCCCOc1cc(N2CC(Cn3ccnc3)CN(Cc3cc(F)ccc3OC)C2=O)ccc1OC (centres unmarked) [SC0042],258 nM
13,CCCCCOc1cc(N2CC(CNC(=O)c3ccccn3)CN(Cc3cc(F)ccc3OC)C2=O)ccc1OC (centres unmarked) [SC0054],34.8 nM
14,CCCCCOc1cc(N2CC[C@H](C)N(Cc3cccc4c3ccn4CC(=O)N3CCO[C@@H](COC)C3)C2=O)ccc1OC [SC0009],18.5 nM
15,CCCCCOc1cc(N2CC[C@H](C)N(Cc3cccc4[nH]ccc34)C2=O)ccc1OC [SC0010],24.7 nM
16,CCCCCOc1cc(N2CC[C@H](C)N(Cc3cccc4c3ccn4Cc3cccnc3)C2=O)ccc1OC [SC0013],46.7 nM
17,CCCCCOc1cc(N2CC(CO)CN(Cc3ccc(Br)cc3OC)C2=O)ccc1OC (centres unmarked) [SC0027],65.1 nM
18,CCCCCOc1cc(N2CC(CO)CN(Cc3cc(F)ccc3OC)C2=O)ccc1OC (centres unmarked) [SC0016(2)],12.8 nM
19,CCCCCOc1cc(N2CC[C@H](C)N(Cc3cccc4c3ccn4CC(=O)N3CCOC(COC)C3)C2=O)ccc1OC (some centres unmarked) [SC0005],11.2 nM
20,CCCCCOc1cc(N2CC3(CC3)CN(Cc3ccnc4c3ccn4CC(=O)N(C)C)C2=O)ccc1OC [SC0065],39 nM
21,CCCCCOc1cc(N2CC3(COC3)CN(Cc3ccnc4c3ccn4CC(=O)N(C)C)C2=O)ccc1OC [SC0069],129 nM
22,CCCCCOc1cc(N2CC[C@H](C)N(Cc3cccc4c3ccn4CC(=O)N3CCO[C@H](COC)C3)C2=O)ccc1OC [SC0002],8.7 nM
23,CCCCCOc1cc(N2C(=O)CN(Cc3cc(F)ccc3OC)C2=O)ccc1OC [SC0063],985 nM

row,Structure (SMILES),IC50
1,CCCCCOc1cc(N2CC(COCC(=O)N3CCOCC3)CN(Cc3cc(F)ccc3OC)C2=O)ccc1OC (centres unmarked) [SC0029],84.5 nM
2,CCCCCOc1cc(N2CC(C)CN(Cc3ccc(CC(=O)O)cc3OC)C2=O)ccc1OC (centres unmarked) [SC0019],55.9 nM
3,CCCCCOc1cc(N2CC(C(=O)NCCOC)CN(Cc3cc(F)ccc3OC)C2=O)ccc1OC (centres unmarked) [SC0047],36.2 nM
4,CCCCCOc1cc(N2CC[C@H](C)N(Cc3cccc4c3ccn4CC(=O)NC3CC(O)C3)C2=O)ccc1OC (some centres unmarked) [SC0006],11.2 nM
5,CCCCCOc1cc(N2CC(Cn3cc(-c4cnccn4)cn3)CN(Cc3cc(F)ccc3OC)C2=O)ccc1OC (centres unmarked) [SC0032],99.8 nM
6,CCCCCOc1cc(N2CC(COCC(=O)NC)CN(Cc3cc(F)ccc3OC)C2=O)ccc1OC (centres unmarked) [SC0030],94.5 nM
7,CCCCCOc1cc(N2CC(CN)CN(Cc3cc(F)ccc3OC)C2=O)ccc1OC (centres unmarked) [SC0034],115 nM
8,CCCCCOc1cc(N2CC(COCC(=O)N(C)CCO)CN(Cc3cc(F)ccc3OC)C2=O)ccc1OC (centres unmarked) [SC0026],59.7 nM
9,CCCCCOc1cc(N2CC3(CN(C(=O)OCC)C3)CN(Cc3cc(F)ccc3OC)C2=O)ccc1OC [SC0067],59 nM
10,CCCCCOc1cc(N2CC(COCC(=O)N(C)C)CN(Cc3cc(F)ccc3OC)C2=O)ccc1OC (centres unmarked) [SC0025],59.4 nM
11,C=C1CN(Cc2ccc(Br)cc2OC)C(=O)N(c2ccc(OC)c(OCCCCC)c2)C1 [SC0062],173 nM
12,CCCCCOc1cc(N2CC[C@H](C)N(Cc3cccc4c3ccn4CC(=O)N3CCCOCC3)C2=O)ccc1OC [SC0004],10.5 nM
13,CCCCCOc1cc(N2CC(COCC(N)=O)CN(Cc3cc(F)ccc3OC)C2=O)ccc1OC (centres unmarked) [SC0028],53.7 nM
14,CCCCCOc1cc(N2CC3(CN(Cc4cc(F)ccc4OC)C2=O)CC3(F)F)ccc1OC (centres unmarked) [SC0068],77.2 nM
15,CCCCCOc1cc(N2CC(Cn3cc4ccccc4n3)CN(Cc3cc(F)ccc3OC)C2=O)ccc1OC (centres unmarked) [SC0041],251 nM
16,CCCCCOc1cc(N2CC(C(N)=O)CN(Cc3cc(F)ccc3OC)C2=O)ccc1OC (centres unmarked) [SC0044],14.9 nM
17,CCCCCOc1cc(N2CC(Cn3cc(CO)nn3)CN(Cc3cc(F)ccc3OC)C2=O)ccc1OC (centres unmarked) [SC0040],208 nM
18,CCCCCOc1cc(N2CC(C(=O)N(C)C)CN(Cc3cc(F)ccc3OC)C2=O)ccc1OC (centres unmarked) [SC0048],52.3 nM
19,CCCCCOc1cc(N2CC(Cn3cc(C)cn3)CN(Cc3cc(F)ccc3OC)C2=O)ccc1OC (centres unmarked) [SC0031],96 nM
20,CCCCCOc1cc(N2CC(C(=O)NC)CN(Cc3cc(F)ccc3OC)C2=O)ccc1OC (centres unmarked) [SC0046],33 nM
21,CCCCCOc1cc(N2CC(O)(CO)CN(Cc3cc(F)ccc3OC)C2=O)ccc1OC (centres unmarked) [SC0022],140 nM
22,CCCCCOc1cc(N2CC(C)CN(Cc3ccc(CC(=O)N(C)C)cc3OC)C2=O)ccc1OC (centres unmarked) [SC0017],28.2 nM
23,CCCCCOc1cc(N2CC[C@H](C)N(Cc3cccc4c3ccn4CC(=O)N(C)c3cccnc3)C2=O)ccc1OC [SC0011],25.2 nM

row,Structure (SMILES),IC50
1,CCCCCOc1cc(N2CC(COCC(=O)NCCOC)CN(Cc3cc(F)ccc3OC)C2=O)ccc1OC (centres unmarked) [SC0037],124 nM
2,CCCCCOc1cc(N2C[C@@H](C)CN(Cc3cc(F)ccc3OC)C2=O)ccc1OC [SC0021],71.5 nM
3,CCCCCOc1cc(N2CC(Cn3cncn3)CN(Cc3cc(F)ccc3OC)C2=O)ccc1OC (centres unmarked) [SC0035],122 nM
4,CCCCCOc1cc(N2CC(CNC(=O)c3cnco3)CN(Cc3cc(F)ccc3OC)C2=O)ccc1OC (centres unmarked) [SC0053],24.2 nM
5,CCCCCOc1cc(N2CC(C(=O)Nc3ncco3)CN(Cc3cc(F)ccc3OC)C2=O)ccc1OC (centres unmarked) [SC0050],76.2 nM
6,CCCCCOc1cc(N2C[C@@H](CO)CN(Cc3cc(F)ccc3OC)C2=O)ccc1OC [SC0072],14.2 nM
7,CCCCCOc1cc(N2CC(CNC(=O)c3ccnn3C)CN(Cc3cc(F)ccc3OC)C2=O)ccc1OC (centres unmarked) [SC0057],47.5 nM
8,CCCCCOc1cc(N2CC[C@H](C)N(Cc3cccc4c3ccn4CC(=O)N3CCOC(CN(C)C)C3)C2=O)ccc1OC (some centres unmarked) [SC0007],13.6 nM
9,CCCCCOc1cc(N2C[C@H](C)CN(Cc3cc(F)ccc3OC)C2=O)ccc1OC [SC0020],66.8 nM
10,CCCCCOc1cc(N2CC(CNC(=O)COC)CN(Cc3cc(F)ccc3OC)C2=O)ccc1OC (centres unmarked) [SC0056],42.5 nM
11,CCCCCOc1cc(N2CC(COCC(=O)O)CN(Cc3cc(F)ccc3OC)C2=O)ccc1OC (centres unmarked) [SC0024],59.3 nM
12,CCCCCOc1cc(N2CC[C@@H](C)N(Cc3cccc4c3ccn4CC(=O)N(C)C)C2=O)ccc1OC [SC0014],146 nM
13,CCCCCOc1cc(N2CC[C@H](C)N(Cc3cccc4c3ccn4CC(=O)N(C)C)C2=O)ccc1OC [SC0008],18.5 nM
14,CCCCCOc1cc(N2CC(C(=O)O)CN(Cc3cc(F)ccc3OC)C2=O)ccc1OC (centres unmarked) [SC0059],57.7 nM
15,CCCCCOc1cc(N2CC(Cn3cccn3)CN(Cc3cc(F)ccc3OC)C2=O)ccc1OC (centres unmarked) [SC0033],101 nM
16,CCCCCOc1cc(N2CC(C(=O)N3CCS(=O)(=O)C3)CN(Cc3cc(F)ccc3OC)C2=O)ccc1OC (centres unmarked) [SC0045],24.3 nM
17,CCCCCOc1cc(N2CC(Cn3cc(-c4ccccn4)nn3)CN(Cc3cc(F)ccc3OC)C2=O)ccc1OC (centres unmarked) [SC0038],129 nM
18,CCCCCOc1cc(N2CC(C(=O)N(C)CCO)CN(Cc3cc(F)ccc3OC)C2=O)ccc1OC (centres unmarked) [SC0049],68.1 nM
19,CCCCCOc1cc(N2CC(Cn3ncc4ccccc43)CN(Cc3cc(F)ccc3OC)C2=O)ccc1OC (centres unmarked) [SC0043],337 nM
20,CCCCCOc1cc(N2CC(CNC(=O)C(F)(F)F)CN(Cc3cc(F)ccc3OC)C2=O)ccc1OC (centres unmarked) [SC0036],122 nM
21,CCCCCOc1cc(N2CC(C)CN(Cc3cc(F)ccc3OC)C2=O)ccc1OC (centres unmarked) [SC0018],44.7 nM
